Laboratory results from PMC6934184, “Selective DNA-PKcs inhibition extends the therapeutic index of localized radiotherapy and chemotherapy” (The Journal of Clinical Investigation, 2019).

Target: T1, MYLK2 (skMLCK) (Homo sapiens, UniProt Q9H1R3)
T1 construct: purchased Thermo Fisher Scientific (Life Technologies) SelectScreen
Assay: SelectScreen Z'LYTE
Assay type: biochemical
Procedure, shortened: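 Percent values come from Thermo SelectScreen profiling of NU5455, combining activity and binding assays. CSF1R was run in Z'LYTE format at Km app ATP, and CAMK1 in Adapta format with ATP listed at 10.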

T1 sequence (Q9H1R3 whole entry): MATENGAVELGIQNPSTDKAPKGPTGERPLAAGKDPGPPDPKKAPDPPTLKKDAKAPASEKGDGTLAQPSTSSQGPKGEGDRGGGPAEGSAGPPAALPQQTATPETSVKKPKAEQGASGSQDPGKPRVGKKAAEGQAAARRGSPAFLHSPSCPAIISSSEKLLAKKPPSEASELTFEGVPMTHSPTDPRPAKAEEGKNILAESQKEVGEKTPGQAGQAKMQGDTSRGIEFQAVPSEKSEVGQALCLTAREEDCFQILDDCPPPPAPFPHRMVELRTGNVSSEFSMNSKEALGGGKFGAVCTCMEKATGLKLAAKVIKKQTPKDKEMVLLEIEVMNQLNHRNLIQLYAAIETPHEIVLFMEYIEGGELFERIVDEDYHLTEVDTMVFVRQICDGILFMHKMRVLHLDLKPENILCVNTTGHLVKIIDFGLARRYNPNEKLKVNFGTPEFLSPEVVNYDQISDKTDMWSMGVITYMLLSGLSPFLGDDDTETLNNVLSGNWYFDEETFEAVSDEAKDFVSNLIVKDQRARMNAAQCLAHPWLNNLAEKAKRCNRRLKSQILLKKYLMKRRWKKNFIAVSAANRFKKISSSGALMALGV

CN(C(=O)CN1CCOCC1)c1ccc2sc3c(-c4cccc5c(=O)cc(N6CC7CCC(C6)O7)oc45)cccc3c2c1 [NU5455] showed an inhibition at 1 µM of -2.2%.
